Tests used:
IL-6 = details: data-mining of P001 cytokine profiling
solid tumors = assay: Phase I/II study P001, i.v. trabedersen: all patients, MTD and DLT; format: in vivo, human
Excerpt: (§1) P001 is a completed Phase I/II dose escalation study. Primary objective is the determination of the MTD as well as the DLT of 2 cycles as core treatment and up to 8 optional extension cycles of trabedersen administered i.v. for 4 or 7 d every other week, as described in the following. The study followed a classical cohort design with 3 evaluable patients per cohort. Patients treated with the 1st schedule received trabedersen continuously for 7 d, followed by a treatment-free interval of 7 d for each treatment cycle (7-d-on, 7-d-off). After the MTD had been reached for this schedule, a 2nd schedule of 4 d trabedersen administration, followed by a treatment-free interval of 10 d for each treatment cycle was started (4-d-on, 10-d-off). In this treatment schedule the MTD has not been reached.
Primary objective of the study is the determination of the maximum tolerated dose (MTD) as well as the dose limiting toxicity (DLT) of two cycles of Trabedersen administered every other week. Secondary objectives include safety and tolerability, pharmacokinetic profile and potential antitumor activity of intravenous Trabedersen treatment.
(§2) Trabedersen was administered as i.v. continuous infusion for 4 or 7 days every other week via an implanted subcutaneous port system connected to a portable pump and with a flow rate of 0.8 mL/h. The core treatment consisted of 2 treatment cycles. Up to 8 optional extension cycles were administered in case of clinical benefit.
The dose escalation followed a classical cohort design with at least 3 and up to 6 patients per cohort receiving Trabedersen. The starting dose was chosen based on the Lowest-Observed-Adverse-Effect Level (LOAEL) determined in monkeys as the most relevant species. […] The Data and Safety Monitoring Board (DSMB) regularly reviewed available safety and efficacy data before each escalation step. Generally, if patients of one cohort had tolerated the therapy, the next cohort received the next higher dose. Toxicity was assessed based on National Cancer Institute-Common Toxicity Criteria (NCI-CTC, version 2). A DLT was defined as an at least possibly related, medically important adverse event, of NCI-CTC grade 3 or 4, a worsening by ≥2 grades from baseline for renal or hepatic toxicities, a worsening by ≥3 grades from baseline for other laboratory parameters, or other toxicities considered dose-limiting by the investigator. If more than 2 patients of a cohort had DLTs, the next lower dose was defined as MTD. Dose-escalation had to be stopped if MTD was reached.
(§3) The overall survival is calculated for all patients as the survival time from the onset of treatment with study medication to death due to any cause and analyzed with the Kaplan-Meier method.
Altogether 33 patients with advanced pancreatic cancer, malignant melanoma, or colorectal cancer were enrolled for dose escalation (Table 15). Patients treated in the first treatment schedule received Trabedersen continuously for 7 days, followed by a treatment-free interval of 7 days for each treatment cycle (7-days-on, 7-days-off).
After the MTD had been reached in the 7-days-on, 7-days-off schedule, a second dose escalation was started using a modified treatment schedule with 4 days Trabedersen administration, followed by a treatment-free interval of 10 days for each treatment cycle (4-days-on, 10-days-off).

[1] = system: patient derived autologous HGG cells; assay: LAK cell-mediated autologous cytotoxicity (calcein-release assay); format: cell-based, human; details: untreated control 16%
Description: Human HGG cells were obtained from surgical specimens of 5 patients. PBMCs from these patients were activated with human recombinant IL-2 to generate lymphokine-activated killer (LAK) cells as effector cells, which are known to lyse most autologous and allogenic fresh human tumor cells. LAK cell-mediated cytotoxicity against the patient derived autologous HGG cells (target cells) was tested in a cell co-culture system using the calcein-release assay.

[2] = system: advanced pancreatic cancer; assay: Phase I/II study P001: patients with pancreatic cancer; format: in vivo, human
Excerpt: as §1, §2, §3
Altogether 21 patients with pancreatic cancer were treated during dose escalation.
There was no clear dose-response relationship, neither in the 7-days-on, 7-days-off schedule nor in the 4-days-on, 10-days-off schedule. A similar pattern is seen when the 5 patients with malignant melanoma and 5 patients with colorectal cancer treated during dose-escalation are also included.

[3] = Toxicology in monkeys (LOAEL); format: in vivo
malignant melanoma = assay: Phase I/II study P001: patients with malignant melanoma; format: in vivo, human
colorectal cancer = assay: Phase I/II study P001: patients with colorectal cancer; format: in vivo, human; details: all colorectal patients independent of dose and schedule
Excerpt: as §1
Trabedersen was administered as i.v. continuous infusion for 4 or 7 days every other week via an implanted subcutaneous port system connected to a portable pump and with a flow rate of 0.8 mL/h. […]
as §3
One patient with AJCC Stage IV colorectal cancer treated in the 240 mg/m^2/day cohort of the 7-day-on, 7-day-off schedule was assessed with stable disease and survived for 7.3 months. […]

C8161 human melanoma = assay: Orthotopic C8161 human melanoma model; details: group 2: 16 mg/kg SC 3 times/week
[4] = 4-days-on, 10-days-off, 140 mg/m^2/day
[5] = 4-days-on, 10-days-off, 140 mg/m^2/day (additional patients)
[6] = 4-days-on, 10-days-off, 190 mg/m^2/day
[7] = 4-days-on, 10-days-off, 250 mg/m^2/day
[8] = 4-days-on, 10-days-off, 330 mg/m^2/day
[9] = 7-days-on, 7-days-off, 40 mg/m^2/day
[10] = 7-days-on, 7-days-off, 80 mg/m^2/day
[11] = 7-days-on, 7-days-off, 160 mg/m^2/day
[12] = 7-days-on, 7-days-off, 240 mg/m^2/day

## cggcatgtct attttgta (antisense CGGCATGTCTATTTTGTA; chemistry not given here) [OT-101]
IL-6
  signal of cytokine storm following treatment: no signal of cytokine storm
Solid tumors; [4]
  Dose limiting toxicities (NCI-CTC grade): — 1 gastrointestinal bleeding (3)
  Median Overall Survival, All patients: 14.5 months
Solid tumors; [5]
  Median Overall Survival, All patients: 6.0^2 months
Solid tumors; [6]
  Median Overall Survival, All patients: 9.3 months
Solid tumors; [7]
  Median Overall Survival, All patients: 9.8 months
Solid tumors; [8]
  Median Overall Survival, All patients: 3.0 months
Solid tumors; 4-days-on, 10-days-off, 140 to 330 mg/m^2/day
  MTD: without reaching an MTD
Solid tumors; 7-days-on, 7-days-off schedule
  MTD: 160 mg/m^2/day
Solid tumors; [9]
  Median Overall Survival, All patients: 6.9 months
Solid tumors; [10]
  Median Overall Survival, All patients: 9.2 months
Solid tumors; [11]
  Median Overall Survival, All patients: 2.9 months
Solid tumors; [12]
  Median Overall Survival, All patients: 6.5 months
Solid tumors; 7-days-on, 7-days-off, 240 mg/m^2/day, listed as Trabedersen
  Dose limiting toxicities (NCI-CTC grade): 2 thrombocytopenias, 1 exanthema and — 1 exanthema (3) and — 2 thrombocytopenias (3)
[1]
  autologous cytotoxicity against human HGG cells, mean: 40%
Vero 76 cells
  CC50: > 1000 µg/mL
Vero 76 cells; 1000 μg/ml
  Toxicity at the highest dose: not toxic
[2]; 2nd-line therapy, independent of dose and schedule
  mOS: 8.9 months
[2]; 2nd-line, 140 mg/m^2/day 4-on/10-off, no subsequent chemotherapy
  mOS: 2.6 months
[2]; 2nd-line, 140 mg/m^2/day 4-on/10-off, with subsequent chemotherapy
  mOS: 16.9 months
[2]; 2nd-line, 140 mg/m^2/day, 4-days-on, 10-days-off
  mOS: 14.5 months
[2]; [4]
  Median Overall Survival, Patients with pancreatic cancer: 14.5 months
[2]; [5]
  Median Overall Survival, Patients with pancreatic cancer: 3.3 months
[2]; [6]
  Median Overall Survival, Patients with pancreatic cancer: 6.2 months
[2]; [7]
  Median Overall Survival, Patients with pancreatic cancer: 7.3 months
[2]; [8]
  Median Overall Survival, Patients with pancreatic cancer: 2.4 months
[2]; [9]
  Median Overall Survival, Patients with pancreatic cancer: 6.9 months
[2]; [10]
  Median Overall Survival, Patients with pancreatic cancer: 4.6 months
[2]; [11]
  Median Overall Survival, Patients with pancreatic cancer: 3.9 months
[2]; [12]
  Median Overall Survival, Patients with pancreatic cancer: 5.5 months
[2]; all 35 pancreatic carcinoma patients, independent of dose and schedule
  mOS: 4.9 months
[2]; dose escalation, 4-days-on, 10-days-off schedule
  mOS: 9.3 months
[2]; dose escalation, 7-days-on, 7-days-off schedule
  mOS: 5.7 months
SARS-CoV (Urbani strain); SARS-CoV (Urbani strain), Vero 76, CPE neutral red, day 5
  EC50: 50% effective antiviral concentration: 7.6 µg/mL
SARS-CoV (Urbani strain); SARS-CoV, Vero 76 cells
  SI (CC50/EC50): >38
[3]
  Lowest-Observed-Adverse-Effect Level (LOAEL), equivalent in human adults: 48 mg/m^2/day
Malignant melanoma; 4-days-on, 10-days-off schedule
  Survival: 11.4 months
Malignant melanoma; 4-days-on, 10-days-off, with subsequent therapies
  mOS: 13.5 months
Malignant melanoma; 4-days-on, 10-days-off, without subsequent therapies
  mOS: 6.0 months
Malignant melanoma; 7-days-on, 7-days-off schedule
  Survival: 7.8 months
Malignant melanoma; 14 additional patients, 140 mg/m^2/day, 4-days-on, 10-days-off
  mOS: 10.4 months
Malignant melanoma; all melanoma patients independent of dose and schedule
  mOS: 11.4 months
Malignant melanoma; last cohort 140 mg/m2/day, followed by subsequent therapy
  mOS: 13.5 months
Malignant melanoma; last cohort 140 mg/m2/day, no subsequent therapy
  mOS: 6.0 months
Malignant melanoma; melanoma patients of dose escalation
  mOS: 13.8 months
Malignant melanoma; two patients, 2nd-line, 140 mg/m^2/day 4-on/10-off
  mOS: 9.5 months
SARS-COV-2 USA_WA1/2020; SARS-CoV-2
  SI=CC50/EC50: >500
SARS-COV-2 USA_WA1/2020; SARS-CoV-2, Vero 76 cells
  SI (CC50/EC50): >500
SARS-COV-2 USA_WA1/2020; SARS-CoV-2 USA_WA1/2020, Vero 76, CPE neutral red, day 5
  EC50: 50% effective antiviral concentration: 2.0 µg/mL
SARS-COV-2 USA_WA1/2020; read-out: EC50 (value in brackets), SARS-CoV-2 USA_WA1/2020, Vero 76
  EC50: 330 nM
Colorectal cancer
  mOS: 3.0 months
C8161 human melanoma
  Tumor growth suppressed versus control group 1 on day 42: 2%
